IC50 and inhibition data for 21 compounds are collected here from patent US9630958B2, “Triazine compounds” (Sphaera Pharma Pte. Ltd., priority 2012, dated 2017).

Test [1] addresses T1, PI3 Kinase alpha (p110 alpha/p85 alpha) (Homo sapiens, UniProt P42336).
T1 construct: purchased Invitrogen
As to the kind of experiment: PI3K TR-FRET assay (Transcreener ADP2). In kind it is biochemical. To be noted: for IC50: PI3K alpha, 1 μM ATP, 50 μM PIP2; for inhibition at 1 µM: 1 uM compound, read-out: PI3K % Inhib@1 uM. The method, then:
Enzymatic activity of PI3K alpha was measured using Time resolved Fluorescence resonance energy transfer (TR-FRET) assay. This assay utilizes ADP detection as a means to screen inhibitor potency of compounds. The Transcreener ADP2 TR-FRET Red Assay is a competitive immunoassay for ADP with a far-red, TR-FRET readout and it has been used for this purpose. The assay can be used for any enzyme class that produces ADP (Kinases, ATPases). It consists of ADP HiLyte647 Tracer, ADP^2 Antibody-Tb conjugate (800 nM), stop & detect buffer, 5 mM ATP, 5 mM ADP. The ADP HiLyte647 Tracer is bound to an ADP^2 Antibody-Tb conjugate. The excitation of the terbium complex in the UV range results in energy transfer to the tracer and emission at a higher wavelength after a time delay ADP produced by the target enzyme displaces the tracer which causes decrease in TR-FRET.
The reaction buffer used for the assay was 50 mM HEPES, pH 7.4.3 mM MgCl2, 0.05% CHAPS, 50 mM NaCl, 2 mM DTT, 1 mM EGTA. PI3 Kinase alpha (p110 alpha/p85 alpha) and PIP2 Substrate (diC8,) were procured from Invitrogen and Echelon respectively.
Kinase reactions were performed in 10 μl volume in Corning white 384 well plates. […] Reaction was initiated by the addition of substrate (PIP2) and ATP at final conc. of 50 μM and 1 μM ATP in the reaction respectively. Kinase reactions were allowed to proceed for 1 hour at room temperature before a 10 μL preparation of Transcreener ADP detection mix was added. Plate was incubated at room temperature for 1 hr. ADP-ATP standard curves were also prepared.
(§1) FRET signal was read in Envision Multilabel Reader with the following filters:
Excitation-330 nm and Emission 615 nm (donor) and 665 nm (acceptor). TR FRET Ratio (Fluorescence 665 nm/Fluorescence 615 nm) was converted to amount of product formed using the standard curve generated. Percentage inhibition was calculated and plotted against the concentration of inhibitor and data was fit to Non Linear Regression curve fit (sigmoidal dose response curve with variable slope-four parameters) using Graph pad prism 5 and IC50 was calculated for the compound.
For orientation: Time-resolved FRET reads energy transfer from a long-lived donor to a nearby acceptor.

For the next test, the target named is T2, Recombinant mTOR (FRAP1) (Homo sapiens, UniProt P42345).
T2 construct: purchased Invitrogen
T2 sequence (P42345 1360-2549 limits assumed): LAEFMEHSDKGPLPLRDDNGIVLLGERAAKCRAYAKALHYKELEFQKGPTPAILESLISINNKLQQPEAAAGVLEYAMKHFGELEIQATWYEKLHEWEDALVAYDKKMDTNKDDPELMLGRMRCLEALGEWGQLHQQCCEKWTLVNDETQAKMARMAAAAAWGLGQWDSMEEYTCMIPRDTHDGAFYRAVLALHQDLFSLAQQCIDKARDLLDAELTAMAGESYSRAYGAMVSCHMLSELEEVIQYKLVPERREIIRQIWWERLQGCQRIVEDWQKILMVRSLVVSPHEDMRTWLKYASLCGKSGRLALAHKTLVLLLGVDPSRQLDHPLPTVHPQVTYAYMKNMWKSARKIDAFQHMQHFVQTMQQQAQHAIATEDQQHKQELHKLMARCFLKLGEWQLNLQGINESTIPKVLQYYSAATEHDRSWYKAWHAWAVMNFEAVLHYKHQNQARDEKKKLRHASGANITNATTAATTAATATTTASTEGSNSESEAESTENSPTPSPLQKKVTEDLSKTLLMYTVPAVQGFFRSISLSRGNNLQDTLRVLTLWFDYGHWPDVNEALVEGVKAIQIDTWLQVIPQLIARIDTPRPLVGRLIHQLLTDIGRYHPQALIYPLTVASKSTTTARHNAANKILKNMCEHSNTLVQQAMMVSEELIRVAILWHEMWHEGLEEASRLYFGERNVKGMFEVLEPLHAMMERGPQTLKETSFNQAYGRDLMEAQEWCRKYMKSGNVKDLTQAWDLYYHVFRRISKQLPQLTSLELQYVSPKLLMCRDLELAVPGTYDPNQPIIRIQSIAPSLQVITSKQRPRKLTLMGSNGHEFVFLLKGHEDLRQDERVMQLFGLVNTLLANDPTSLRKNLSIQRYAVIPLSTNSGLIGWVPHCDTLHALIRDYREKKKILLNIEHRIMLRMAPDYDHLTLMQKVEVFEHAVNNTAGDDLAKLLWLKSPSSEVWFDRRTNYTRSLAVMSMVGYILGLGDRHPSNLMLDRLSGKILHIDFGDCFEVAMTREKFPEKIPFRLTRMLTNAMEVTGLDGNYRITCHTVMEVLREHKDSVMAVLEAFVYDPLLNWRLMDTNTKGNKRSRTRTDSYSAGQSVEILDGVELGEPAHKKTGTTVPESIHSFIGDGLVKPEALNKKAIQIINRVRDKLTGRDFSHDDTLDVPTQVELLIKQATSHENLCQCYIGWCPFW
Description: mTOR in vitro kinase assay (TR-FRET, phosphorylation of GFP-4E-BP1). Conditions: for inhibition at 1 µM: 1 uM compound, read-out: mTOR % Inhib@1 uM; for IC50: 8 μM ATP, 400 nM GFP-4E-BP1. The class given is biochemical. The method, then: Compounds were evaluated for mTOR activity using an in vitro kinase assay.
mTOR activity is measured in vitro by determining the level of phosphorylation of the protein substrate 4EBP-1. The phosphorylation of GFP-4E-BP1 at threonine residue is recognized by Ab Tb-Anti-p4EBP1, which results in time resolved fluorescence energy transfer (TR-FRET) between GFP and Terbium in the Ab-Protein complex.
Recombinant mTOR (FRAP1), Kinase reaction buffer, GFP-4E-BP1 and LanthaScreen Tb-anti-4E-BP1 (pThr46), TR FRET dilution buffer, Kinase Quench Buffer were obtained from Invitrogen.
Kinase reactions were performed in 10 μl volume in Corning white 384 well plates. […] The reaction was initiated by the addition of substrate (GFP-4E-BP1) and ATP at a final conc. of 400 nM and 8 μM ATP in the reaction respectively. The kinase reaction was allowed to proceed for 1 hour at room temperature before a 10 μL preparation of kinase quench buffer and Tb-labeled Antibody in TR-FRET dilution buffer was added. The final concentration of the antibody in the assay well is 2 nM and the final concentration of EDTA is 10 mM. The plate was incubated at room temperature for 1 h.
as §1
Excitation-330 nm and Emission 486 nm (donor) and 520 nm (acceptor).
TR FRET Ratio (Fluorescence 520 nm/Fluorescence 486 nm) was plotted against the concentration of inhibitor and data was fit to Non Linear Regression curve fit (sigmoidal dose response curve with variable slope-four parameters) using Graph Pad Prism 5.

Usually IC50 stands for the concentration at which inhibition is half-maximal.

T1 sequence (P42336 whole entry): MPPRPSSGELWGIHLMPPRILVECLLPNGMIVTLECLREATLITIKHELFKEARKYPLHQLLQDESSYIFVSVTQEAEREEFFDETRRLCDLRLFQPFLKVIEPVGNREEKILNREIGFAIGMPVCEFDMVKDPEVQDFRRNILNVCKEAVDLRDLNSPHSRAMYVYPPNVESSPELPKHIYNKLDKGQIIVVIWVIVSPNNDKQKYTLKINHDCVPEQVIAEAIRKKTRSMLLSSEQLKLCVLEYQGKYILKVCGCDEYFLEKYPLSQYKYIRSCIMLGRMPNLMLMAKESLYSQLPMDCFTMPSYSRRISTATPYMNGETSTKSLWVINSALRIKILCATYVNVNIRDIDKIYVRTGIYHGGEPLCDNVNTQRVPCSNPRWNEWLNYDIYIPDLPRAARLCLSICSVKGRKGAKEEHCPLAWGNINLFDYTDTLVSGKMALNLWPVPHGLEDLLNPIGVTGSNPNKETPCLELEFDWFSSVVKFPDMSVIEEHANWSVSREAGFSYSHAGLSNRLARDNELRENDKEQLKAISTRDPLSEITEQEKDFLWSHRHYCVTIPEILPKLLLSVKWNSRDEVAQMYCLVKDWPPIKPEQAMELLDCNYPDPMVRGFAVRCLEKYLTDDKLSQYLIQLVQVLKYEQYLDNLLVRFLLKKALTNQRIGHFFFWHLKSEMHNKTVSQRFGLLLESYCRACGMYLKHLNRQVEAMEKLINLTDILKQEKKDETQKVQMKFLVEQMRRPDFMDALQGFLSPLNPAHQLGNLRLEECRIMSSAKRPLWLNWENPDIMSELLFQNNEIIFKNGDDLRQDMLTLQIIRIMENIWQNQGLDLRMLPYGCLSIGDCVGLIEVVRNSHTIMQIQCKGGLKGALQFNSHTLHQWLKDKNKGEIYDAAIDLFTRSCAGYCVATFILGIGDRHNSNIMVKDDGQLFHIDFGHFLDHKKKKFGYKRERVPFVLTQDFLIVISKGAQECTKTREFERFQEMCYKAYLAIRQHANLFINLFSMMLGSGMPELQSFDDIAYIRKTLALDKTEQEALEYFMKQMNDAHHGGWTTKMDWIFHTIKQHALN
T1 sequence (P27986 whole entry partner): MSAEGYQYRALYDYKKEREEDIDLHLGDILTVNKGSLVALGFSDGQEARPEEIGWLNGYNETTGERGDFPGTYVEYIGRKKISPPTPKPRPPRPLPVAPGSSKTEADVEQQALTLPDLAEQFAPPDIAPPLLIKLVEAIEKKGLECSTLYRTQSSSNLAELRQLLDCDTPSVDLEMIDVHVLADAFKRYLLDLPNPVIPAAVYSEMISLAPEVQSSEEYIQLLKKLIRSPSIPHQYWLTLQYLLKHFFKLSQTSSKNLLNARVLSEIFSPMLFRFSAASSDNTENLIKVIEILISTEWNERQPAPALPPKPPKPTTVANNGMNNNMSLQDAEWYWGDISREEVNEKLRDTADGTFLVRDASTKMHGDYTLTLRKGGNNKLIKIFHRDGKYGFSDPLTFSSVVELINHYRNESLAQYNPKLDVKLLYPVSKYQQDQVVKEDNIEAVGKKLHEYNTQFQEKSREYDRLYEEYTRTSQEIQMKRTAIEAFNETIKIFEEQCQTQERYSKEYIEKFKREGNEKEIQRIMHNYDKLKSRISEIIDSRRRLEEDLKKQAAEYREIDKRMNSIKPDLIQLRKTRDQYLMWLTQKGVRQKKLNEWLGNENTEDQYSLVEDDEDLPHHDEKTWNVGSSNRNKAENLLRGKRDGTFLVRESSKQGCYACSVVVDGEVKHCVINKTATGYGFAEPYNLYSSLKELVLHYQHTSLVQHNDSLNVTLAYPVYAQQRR

In the case of `CN(C)C(=O)N1CCC(Oc2nc(-c3ccc(N)nc3)nc(N3CCOCC3)n2)CC1` [Compound 10021, 4-(4-(6-aminopyridin-3-yl)-6-morpholino-1,3,5-triazin-2-yloxy)-N,N-dimethylpiperidine-1-carboxamide], the IC50 (in test [1]; on Recombinant mTOR (FRAP1)) was below 1000 nM throughout. The inhibition at 1 µM on Recombinant mTOR (FRAP1) is above 50%.

As to `C[C@H]1COCCN1c1nc(Oc2ccc(C(=O)N(C)C)cc2F)nc(-c2cnc(N)cc2C(F)(F)F)n1` [Compound 10067, (S)-4-((4-(6-Amino-4-(trifluoromethyl)pyridine-3-yl)-6-(3-methylmorpholino)-1,3,5-triazin-2-yl)oxy)-3-fluoro-N,N-dimethylbenzamide], the IC50 (in test [1]; on Recombinant mTOR (FRAP1)) was below 1000 nM in each case.

With `CN(C)C(=O)c1ccc(Oc2nc(-c3cnc(N)s3)nc(N3C[C@H]4C[C@@H](C3)O4)n2)cc1` [Compound 10046, 4-(4-(2-aminothiazol-5-yl)-6-((1R,5S)-6-oxa-3-azabicyclo[3.1.1]heptan-3-yl)-1,3,5-triazin-2-yloxy)-N,N-dimethylbenzamide], the inhibition at 1 µM (in test [1]; on Recombinant mTOR (FRAP1)) was below 50% throughout.

On to `C[C@H]1COCCN1c1nc(Oc2ccc(C(=O)N(C)C)cc2)nc(-c2cnc(N)s2)n1` [Compound 10005, (S)-4-(4-(2-aminothiazol-5-yl)-6-(3-methylmorpholino)-1,3,5-triazin-2-yloxy)-N,N-dimethylbenzamide], for which the IC50 (in test [1]; on Recombinant mTOR (FRAP1)) was below 1000 nM in each case. On Recombinant mTOR (FRAP1), the inhibition at 1 µM was above 50%.

Regarding `CN(C)C(=O)NC1CCN(c2nc(-c3ccc(N)nc3)nc(N3CCOCC3)n2)CC1` [Compound 10188, 3-(1-(4-(6-aminopyridin-3-yl)-6-morpholino-1,3,5-triazin-2-yl)piperidin-4-yl)-1,1-dimethylurea], in test [1], the IC50 is above 1000 nM. For the same compound, at Recombinant mTOR (FRAP1), the inhibition at 1 µM is below 50%.

Take `CN(C)C(=O)c1ccc(Oc2nc(-c3ccc4[nH]ncc4c3)nc(N3CC4CCC(C3)O4)n2)c(F)c1` [Compound 10140, 4-(4-(8-oxa-3-aza-bicyclo[3.2.1]octan-3-yl)-6-(1H-indazol-5-yl)-1,3,5-triazin-2-yloxy)-3-fluoro-N,N-dimethylbenzamide]: the IC50 in test [1] is above 10000 nM; on Recombinant mTOR (FRAP1), below 1000 nM. Moreover, on Recombinant mTOR (FRAP1), the inhibition at 1 µM was above 50%.

As to `CN(C)C(=O)c1ccc(Oc2nc(-c3cnc(N)s3)nc(N3CCO[C@@H]4CCCC[C@H]43)n2)cc1` [Compound 10131, 4-(4-(2-aminothiazol-5-yl)-6-((4aR,8aR)-octahydrobenzo[b][1,4]oxazin-4-yl)-1,3,5-triazin-2-yloxy)-N,N-dimethylbenzamide], the inhibition at 1 µM (in test [1]; at Recombinant mTOR (FRAP1)) was below 50% throughout.

For the compound `CN(C)C(=O)c1ccc(Oc2nc(-c3ccc(N)nc3)nc(N3CC4CCC(C3)O4)n2)c(F)c1` [Compound 10095], in test [1], the inhibition at 1 µM is below 50% and the IC50 is above 1000 nM. Also, at Recombinant mTOR (FRAP1), the IC50 is below 1000 nM.

Take `C[C@@H]1COCCN1c1nc(Oc2ccc(C(=O)N(C)C)cc2F)nc(-c2cnc(N)s2)n1` [Compound 10156, 4-(4-(2-aminothiazol-5-yl)-6-((R)-3-methylmorpholino)-1,3,5-triazin-2-yloxy)-3-fluoro-N,N-dimethylbenzamide]: in test [1], the inhibition at 1 µM was below 50% and the IC50 turned out to be 3000 nM. On Recombinant mTOR (FRAP1), the IC50 was below 1000 nM.

On to `CNC(=O)Nc1ncc(-c2nc(Oc3ccc(C(=O)N(C)C)cc3)nc(N3CCOC[C@@H]3C)n2)s1` [Compound 10091, (S)-N,N-dimethyl-4-((4-(3-methylmorpholino)-6-(2-(3-methylureido)thiazol-5-yl)-1,3,5-triazin-2-yl)oxy)benzamide], for which the IC50 (in test [1]; at Recombinant mTOR (FRAP1)) was below 1000 nM in each case. In addition, the inhibition at 1 µM on Recombinant mTOR (FRAP1) is above 50%.

On to `NC(=O)c1ccc(Oc2nc(-c3cnc(N)s3)nc(N3CCOCC3)n2)cc1` [Compound 10201, 4-((4-(2-aminothiazol-5-yl)-6-morpholino-1,3,5-triazin-2-yl)oxy)benzamide], for which the half-maximal inhibitory concentration (IC50) in test [1] is below 1000 nM. Further, on Recombinant mTOR (FRAP1), the inhibition at 1 µM is below 50%.

`C[C@H]1COCCN1c1nc(Oc2ccc(C(=O)N(C)C)cc2)nc(-c2cnc(N)nc2)n1` [Compound 10126, 4-(4-(2-aminopyrimidin-5-yl)-6-((S)-3-methylmorpholino)-1,3,5-triazin-2-yloxy)-N,N-dimethylbenzamide]: in test [1], the IC50 was below 1000 nM. At Recombinant mTOR (FRAP1), the inhibition at 1 µM is above 50% and the IC50 is below 1000 nM.

Consider `C[C@H]1COCCN1c1nc(Oc2ccc(C(=O)N(C)C)cc2)nc(-c2cnc3[nH]ccc3c2)n1` [Compound 10157, 4-(4-((S)-3-methylmorpholino)-6-(1H-pyrrolo[2,3-b]pyridin-5-yl)-1,3,5-triazin-2-yloxy)-N,N-dimethylbenzamide], for which the IC50 (in test [1]; at Recombinant mTOR (FRAP1)) was below 1000 nM each time.

`CN(C)C(=O)c1ccc(Oc2nc(-c3ccc(N)nc3)nc(N3CCCOCC3)n2)cc1` [Compound 10178, 4-((4-(6-aminopyridin-3-yl)-6-(1,4-oxazepan-4-yl)-1,3,5-triazin-2-yl)oxy)-N,N-dimethylbenzamide] registered an IC50 in test [1] below 1000 nM. Also, the inhibition at 1 µM on Recombinant mTOR (FRAP1) is below 50%.

With `CN(C)C(=O)c1ccc(Oc2nc(-c3cnc4[nH]ccc4c3)nc(N3CCOCC3)n2)c(F)c1` [Compound 10158, 4-(4-morpholino-6-(1H-pyrrolo[2,3-b]pyridin-5-yl)-1,3,5-triazin-2-yloxy)-3-fluoro-N,N-dimethylbenzamide], the IC50 (in test [1]; on Recombinant mTOR (FRAP1)) was below 1000 nM throughout.

In turn, `CN(C)C(=O)c1ccc(Oc2nc(-c3cccc4[nH]ncc34)nc(N3[C@@H]4CC[C@H]3COC4)n2)cc1` [Compound 10174, 4-((4-((1R,5S)-3-oxa-8-azabicyclo[3.2.1]octan-8-yl)-6-(1H-indazol-4-yl)-1,3,5-triazin-2-yl)oxy)-N,N-dimethylbenzamide] gave an IC50 in test [1] above 1000 nM. The inhibition at 1 µM at Recombinant mTOR (FRAP1) was below 50%.

On to `C[C@@H]1CN(c2nc(Oc3ccc(C(=O)N(C)C)cc3F)nc(-c3cnc4[nH]ccc4c3)n2)[C@@H](C)CO1` [Compound 10105, 4-((4-((2R,5S)-2,5-dimethylmorpholino)-6-(1H-pyrrolo[2,3-b]pyridine-5-yl)-1,3,5-triazin-2-yl)oxy)-3-fluoro-N,N-dimethylbenzamide], for which the concentration for half-maximal inhibition (IC50) in test [1] is above 1000 nM; on Recombinant mTOR (FRAP1) it was below 1000 nM.

`Nc1ccc(-c2nc(CO)nc(N3CCOCC3)n2)cn1` [Compound 10176, (4-(6-aminopyridin-3-yl)-6-morpholino-1,3,5-triazin-2-yl)methanol] had an IC50 in test [1] below 1000 nM. The inhibition at 1 µM on Recombinant mTOR (FRAP1) is below 50%.

`CN(C)C(=O)c1ccc(Oc2nc(-c3cnc(N)s3)nc(N3CCO[C@H]4CCC[C@@H]43)n2)c(F)c1` [Compound 10146, 4-(4-(2-aminothiazol-5-yl)-6-((4aS,7aS)-hexahydrocyclopenta[b][1,4]oxazin-4(4aH)-yl)-1,3,5-triazin-2-yloxy)-3-fluoro-N,N-dimethylbenzamide]: the IC50 (in test [1]; on Recombinant mTOR (FRAP1)) was below 1000 nM each time.

For the compound `C[C@H]1COCCN1c1nc(Oc2ccc(C(=O)N(C)C)cc2)nc(-c2ccc(N)nc2)n1` [Compound 10096, (S)-4-((4-(6-Aminopyridin-3-yl)-6-(3-methylmorpholino)-1,3,5-triazin-2-yl)oxy)-N,N-dimethylbenzamide], the concentration for half-maximal inhibition (IC50) in test [1] was below 1000 nM. Besides, on Recombinant mTOR (FRAP1), the inhibition at 1 µM is above 50% and the IC50 was below 1000 nM.

Take `CN(C)C(=O)c1ccc(Oc2nc(-c3cnc(N)s3)nc(N3CCS(=O)(=O)CC3)n2)cc1` [Compound 10123]: the inhibition at 1 µM (in test [1]; on Recombinant mTOR (FRAP1)) was below 50% throughout.
